SMILES | melting point [°C]
Cc1ccc(-c2ccc(S(=O)(=O)N3c4ccccc4CC3C(=O)NCCOc3ccc(CC(=O)O)cc3)cc2C(F)(F)F)cc1 (stereo not given) | 92
COc1ccc2c(ccc3cc(OC)c(OC)c(OC)c32)c1 | 142 to 144
CNC(=O)OCC(C)Nc1ncc(Oc2cc(Cl)c(OC)cc2C(C)C)c(N)n1 (stereo not given) | 63.5 to 69.4
COc1ccc([N+](=O)[O-])c(C=C[N+](=O)[O-])c1OCc1ccccc1 | 118 to 119
ClC(=NN=Cc1cccnc1)c1cccnc1 | 103 to 105
CC(O)(CCN)C1(F)C=CC(c2ccccc2)=CC1 (stereo not given) | 144 to 146
Clc1ccc2c(-n3cncn3)ccnc2c1 | 169 to 170
CN(C)C(=O)c1cccc(C(C(N)=O)c2cccc(Br)c2)c1 (stereo not given) | 119 to 120
C[Si](C)(C)OC(Cn1cncn1)(Cn1cncn1)c1ccc(F)cc1F | 69 to 71
COc1ccc(CC(NC(=O)OC(C)(C)C)C(=O)O)cc1 (stereo not given) | 94 to 96
COC(=O)C(=Cc1ccccc1)c1ccc2nc(-c3ccccc3)oc2c1 | 184 to 185
COc1ccc(-c2cnn3c(-c4cccc(NC(=O)CC(C)C)c4)ccnc23)cc1 | 225 to 227
Cc1cc(O)c(O)cc1CC=Cc1ccccc1 | 85
CC(C)=NOCc1nc2c(N)nc(C)c(C)c2n1CCCCNC(=O)c1ccccc1 | 206 to 208
CCC(CO)(c1cccs1)N(C)C (stereo not given) | 66 to 68
O=C(Nc1ccc(C(=O)N2Cc3ccccc3Cc3ccccc32)cn1)c1ccccc1-c1ccccc1 | 134 to 142
O=C(Nc1ccc(C(=O)Nc2ccc(Cl)cc2)c(O)c1)c1ccc(-c2nc3cc(Cl)c(Cl)cc3[nH]2)cc1 | > 220
CCCCCCCCS(=O)(=O)CC(CS(=O)(=O)c1ccc(OC)cc1)C(=O)NO (stereo not given) | 134
O=C(c1ccc(Cl)cc1)c1cccc(Cl)c1[N+](=O)[O-] | 147 to 148
O=Cc1cccc2oc3c(c12)CCCC3 | 55 to 57
COc1ccc2[nH]c(=O)[nH]c(=O)c2c1OC | 266 to 268
O=C1CCC2(CCC(=O)c3ccccc32)C(=O)N1 (stereo not given) | 197 to 199
CNC(=O)c1cnc(SC)nc1Nc1ccc2[nH]ncc2c1 | 259 to 261
CCOC(=O)CC(=O)c1cc(F)c(F)c(C)c1F | 38 to 39
COc1cc(NS(=O)(=O)c2ccc3c(ccn3C)c2)cc(OC)c1OC | 188 to 189

SMILES | melting point [°C]
CCNC(=O)Nc1nc2cc(-c3cccnc3)cc(-c3cccc(OC)n3)c2s1 | 300
CC(C)(C)C(=O)OCOP(=O)(CCCCc1ccccc1)CC(=O)O (stereo not given) | 48 to 50
Cc1cccc(C)c1N1CCN(c2c(C)cccc2C)C1=N | 188 to 190
CN(C(=O)N(C)c1ccc(CCl)cc1)c1ccc(CCl)cc1 | 72 to 73
COCOc1c(NC(=S)NCc2cccnc2)cc(OC)cc1C(C)(C)C | 137 to 138
COc1ccc2c(c1)C(=O)C1=NCCCN12 | 152
CC(=O)OC1Oc2ccc(OS(C)(=O)=O)cc2C1(C)C (stereo not given) | 84 to 85
O=S(=O)(/C=C/c1ccc(F)cc1F)CS(=O)(=O)/C=C/c1ccc(F)cc1F | 193 to 195
COc1ccc(Cl)cc1NC(=O)[C@H]1[C@H](c2ccc(S(N)(=O)=O)cc2)C12CCCCC2 (relative stereo) | 118 to 121
COc1cccc([N+](=O)[O-])c1N | 67 to 68
CCC(Oc1ccc2nc(NC(=O)NCCN3CCOCC3)sc2c1)c1c(Cl)cccc1Cl (stereo not given) | 200
CS(=O)(=O)c1cc(C(=O)O)ccc1Oc1ccc(C(O)CSc2ccccn2)cc1 (stereo not given) | 169 to 174
O=S(=O)(Cl)c1ccc(Nc2nccc(-c3ccc(C(F)(F)F)cc3)n2)cc1 | 186 to 188
COc1ccc(Br)c(C=C(C#N)C(=O)O)c1OC | 130 to 132
O=C1Nc2ccc(F)cc2C1c1ncnc2nn(C3CCCCC3)cc12 (stereo not given) | 294 to 298
N#Cc1ccc(Cc2c[nH]nn2)cc1 | 83
Cc1nc(N2CCC(Cc3ccc(OC(F)(F)F)cc3)C2=O)sc1C(=O)NCc1ccc(F)cc1 (stereo not given) | 165 to 166
N#Cc1cc(-n2cnnc2)cc(C(F)(F)F)c1N | 283
CCOc1nn(Cc2ccc(OCc3cn4c(Cl)cccc4n3)cc2)cc1CCC(=O)O | 153 to 154
CC(C)=CCNC(=O)CCC(NC(=O)C=Cc1ccco1)C(=O)NCC=C(C)C (stereo not given) | 199 to 203
Nc1ncc([N+](=O)[O-])cc1[N+](=O)[O-] | 190 to 191
O=C(NCc1ccc(C=NO)cc1Cl)C1CC1 | 163 to 166
COC1(c2cccc(O)c2)OOC12C1CC3CC(C1)CC2C3 (stereo not given) | 135
COc1ccc2nc3cc(OC)c(=O)c(Cl)c-3sc2c1 | 264
N#Cc1cc([N+](=O)[O-])cc(C#N)c1N | 160 to 163

SMILES | melting point [°C]
O[C@@H]1CN=C(c2ccc(Cl)c(Cl)c2)O[C@H]1c1ccccc1 (racemic) | 158
Cc1cc(=O)[nH]c2cc(O)cc(O)c12 | > 300
CS(=O)(=O)Nc1ccc(CCCOCCCCCCNCC(O)c2ccc(O)c(CO)c2)cc1 (stereo not given) | 48 to 50
COC(=O)CCc1c(C=O)ccc2c1CCC(NS(=O)(=O)c1ccc(Cl)cc1)C2 (stereo not given) | 110
O=C(CCc1cccc(Oc2ccccc2)c1)c1ccc[nH]1 | 75 to 76
O=C(O)C1CCc2c(c3ccccc3n2C(=O)c2ccc(Cl)cc2)C1 (stereo not given) | 210 to 211
CC1Cc2c(N3C(=O)C4=C(CCCC4)C3=O)ccc(Cl)c2O1 (stereo not given) | 134 to 137
Nc1ncnc2sc(Cc3cccnc3)c(-c3ccc(NC(=O)Nc4cccc(Cl)c4)cc3)c12 | 169 to 172
O=S(=O)(CC1(O)CN2CCC1CC2)c1ccc(-c2ccccc2)cc1 (stereo not given) | 203 to 205
COc1cc2c(cc1C(=O)COc1ccc(C(=O)OCc3ccccc3)c(O)c1)C(C)(C)CCC2(C)C | 118 to 119
CCCC1(CC(=O)OC)CCCc2c1[nH]c1cc(Br)ccc21 (stereo not given) | 198
C=CCOC(=O)c1cc(NC(=O)OC(C)(C)C)ccc1OCC=C | 77 to 78
Cc1cc(Oc2cc(C)c([N+](=O)[O-])cn2)n[nH]1 | 136 to 139
CNc1nc2ccc(Cc3ccccn3)cc2s1 | 118 to 121
S=C=Nc1ccc2sc(-c3cccnc3)nc2c1 | 160 to 162
COc1ccc(CCN(C)CCCCc2ccc(NC(=O)c3cccc4c(=O)c5cc(F)ccc5sc34)cc2)cc1OC | 145
O=P(c1ccccc1)(c1ccccc1)c1ccccc1C1OCCO1 | 161 to 162
CN(C)CCCNCc1ccc(-c2cc3ncnc(Nc4ccc5[nH]ccc5c4)c3s2)cc1 | 148 to 160
CCOC(=O)N1CCN(C=C2C(=O)Nc3cc(OC)c(OC)cc32)CC1 | 172 to 174
COc1cc2c(Nc3ccc(Sc4nccn4C)c(Cl)c3)c(C#N)cnc2cc1N1CCC(N2CCCC2)CC1 | 225 to 229
Nc1nc(N2CCOCC2)c2ncn(C3CC(F)C(CO)O3)c2n1 (stereo not given) | 165 to 167
CCn1ncc2c(NCC3CCCC(O)C3)c3cc([N+](=O)[O-])ccc3nc21 (stereo not given) | 236 to 238
COc1cc(C=CC(=O)C=Cc2cc(OC)c(OC)c(OC)c2)cc(OC)c1OC | 45 to 47
COc1cc(OC)c2c(=O)cc(Oc3ccccc3)oc2c1C1CCN(C)CC1O (stereo not given) | 238 to 239
O=C(NCc1cccs1)c1ccccc1C(c1ccc(O)cc1)c1ccc(O)cc1 | 109 to 111

SMILES | melting point [°C]
COc1cc2c(-c3cc4cc(Cl)cnc4[nH]3)cn(C)c2cc1OC | 282
CCC(C#N)=C1CCN(c2ccc(N3C[C@H](CNC(C)=S)OC3=O)cc2F)CC1 | 174 to 176
CC(O)c1ccc2c(c1)ncn2-c1cccc(-c2cccnc2O)c1 (stereo not given) | 133 to 137
CC(C)(C)c1cc(CSCN(O)CSCc2cc(C(C)(C)C)c(O)c(C(C)(C)C)c2)cc(C(C)(C)C)c1O | 98 to 101
CCNc1nc2ccc(CCc3cn4c(n3)CC(C)CC4)cc2o1 (stereo not given) | 159 to 161
CC(C)Cc1ccc2c(c1O)C(=O)c1c(ccc(CC(C)C)c1O)C2=O | 138 to 140
COc1cc2c(cc1OC)CC(=S)N(CCCN(C)C1CCc3cc(OC)c(OC)cc3C1)CC2 (stereo not given) | 70 to 75
CC(=O)OCC1OC(c2ccc(Cl)c(Cc3ccc(-c4ccc(F)nc4)s3)c2)C(OC(C)=O)C(OC(C)=O)C1OC(C)=O (stereo not given) | 161 to 162
Cc1cc(C)c(Nc2nc(C)ccc2S(=O)(=O)c2ccc(OCc3c(C)cccc3C)cc2)c(C)c1 | 136 to 138
FC(F)c1nc2ccccc2n1-c1nc(Nc2ncccn2)nc(N2CCOCC2)n1 | 261 to 263
O=C(Cc1ccccc1)N1CCC2(c3cccc(O)c3)CCCC2C1 (stereo not given) | 135 to 137
CC(C)c1ccc(-c2ccc(/C=C/C(=O)O)s2)cc1 | 216 to 219
CCc1[nH]c(=O)[nH]c1C(O)c1ccncc1 (stereo not given) | 234 to 236
Cc1cc(C)cc(S(=O)(=O)n2c(CCCC(=O)O)cc3nc(Cl)ccc32)c1 | 200
CNC[C@@H](O)c1cc2ccccc2o1 | 88 to 90
O=C(c1ccc(Cl)cc1)c1ccc(CBr)cc1Cl | 88 to 90
Cc1cccc(-n2nc(C)cc2-c2ccnc(S(C)(=O)=O)c2)c1 | 140 to 142
COc1ccc2c(=O)n(S(=O)(=O)c3ccc(C)cc3)c(=O)[nH]c2c1 | 228 to 231
CSC(=C[N+](=O)[O-])NCCSCc1cc(C)c(CN(C)C)s1 | 69 to 71
N#CNC(=N)CCCSc1nccc(NC(N)=NCC(F)(F)F)n1 | 224
O=C(O)c1ccc(C2=NCCO2)cc1 | > 300
CNC(=O)c1c(-c2ccccc2)noc1C=C(N)c1ccccc1 | 181 to 183
O=C(O)c1ccc(C(=O)Nc2cc3c4c(c2)CCCC4CCC3)nc1 | 252 to 253
COc1ccc2[nH]cc(SCCN=C3CCCN3C)c2c1 | 154 to 157
Cc1cc(C(=O)NCOCc2cccnc2)ncc1C(c1cc(F)ccc1F)S(=O)(=O)c1ccc(F)cc1 (stereo not given) | 121 to 123

— a melting point compilation (Tetko et al.; mined from patent text by program, amines drawn as free bases though some values may be those of a salt)
